The values below come from ChEMBL document CHEMBL1201862, “PubChem BioAssay data set” (2004).

SMILES strings stand for the structures.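 Grown in 96-well plates, cells were treated for 48 hours with each compound at five concentrations. Insufficient inhibition: endpoint recorded as highest concentration tested. The concentration for 50% growth inhibition is given as GI50.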 Activity calls are given as the source filed them. No stated cut-off is given here; in the data, active = GI50 up to about 1.1 µM and inactive = higher. Where only a bound is given, the exact number is not on record here.

Common to all, as to assay: NCI anticancer screen, dose series, 48 h
The test system of experiment [1] is EKVX.
Experiment [2] deals with COLO 205.
For experiment [3], the system named is UACC-62.
Experiment [4] relates to SK-MEL-2.
In experiment [5] the test system is MDA-N.
Experiment [6] deals with T47D.
In experiment [7] the test system is LOX IMVI.
The subject of experiment [8] is SR.
Experiment [9] deals with RPMI-8226.
For experiment [10], the system named is HOP-62.
For experiment [11], the system named is NCI-H23.
Experiment [12] has as its system BT-549.
Experiment [13] relates to CCRF-CEM.
Experiment [14] concerns MOLT-4.
Experiment [15] relates to OVCAR-5.
Experiment [16] deals with U-251.
Experiment [17] has as its system K562.
In experiment [18] the test system is NCI-H226.
Experiment [19] has as its system HCC 2998.

As for `CN(C)Cc1cc(C(F)(F)F)ccc1C(O)(c1ccccc1)c1ccccc1`, the GI50 is 15.4 µM (inactive) in experiment [1]; 8.05 µM (inactive) in [2]; 13.2 µM (inactive) in experiment [3]; 18.3 µM (inactive) in experiment [4]; 14.4 µM (inactive) in [5]; 18.2 µM (inactive) in experiment [6]. Also, the GI50 in experiment [7] is 15.8 µM (inactive); in experiment [8], 12.6 µM (inactive); in [9], 5.51 µM (inactive); in experiment [10], 16.3 µM (inactive); in experiment [11], 26.2 µM (inactive); in experiment [12] it was > 10 µM (inactive). Besides, the GI50 in [13] was 6.92 µM (inactive); in experiment [14], 15.7 µM (inactive); in experiment [15] it was 14.4 µM (inactive); in experiment [16], 11.8 µM (inactive); in [17], 6.9 µM (inactive); in experiment [18], 15.1 µM (inactive).

Take `CCON=C1C(C)(C)C(C)(C)C(C)(C)C1(C)C`: the GI50 in [1], in experiment [2], in experiment [3], in experiment [4], in [5] and in experiment [6] was > 100 µM (inactive) each time. Moreover, the GI50 in [7], in [8], in experiment [9], in experiment [10], in experiment [11] and in [12] was > 100 µM (inactive) each time. In addition, the GI50 in experiment [13], in [14], in experiment [15], in experiment [16], in [17] and in experiment [18] was > 100 µM (inactive) throughout.

In the case of `CC1C(=O)N=C2C(=CN(Cc3ccccc3)c3ccccc32)C(=O)N1C` (stereo unspecified), the GI50 in experiment [2], in experiment [3], in experiment [4], in experiment [5], in experiment [19] and in experiment [6] was > 100 µM (inactive) throughout. Also, the GI50 in experiment [8] is 4.26 µM (inactive); in experiment [9], > 100 µM (inactive); in experiment [11] it was > 100 µM (inactive); in [12] it was > 100 µM (inactive); in experiment [13] it was > 100 µM (inactive); in experiment [15], > 100 µM (inactive). Further, the figures for the GI50 in [16], in experiment [17] and in experiment [18] were > 100 µM (inactive), 1.44 µM (inactive) and > 100 µM (inactive), respectively.

As for `NNC(=O)CC(=O)Nc1ccccc1Cl`, the GI50 in experiment [1], in [2], in experiment [3], in experiment [4], in [5] and in [6] was > 100 µM (inactive) throughout. Also, the GI50 in experiment [7], in experiment [8], in experiment [9], in [10], in experiment [11] and in [12] was > 100 µM (inactive) throughout. For the same compound, the GI50 in experiment [13], in [14], in experiment [15], in [16] and in [17] was > 100 µM (inactive) throughout.

For `COC(=O)C(CCCCN)NC(=O)C(CCCCN)NC(=O)C(CCCCN)NC(C)=O.Cc1ccc(C(=O)Nc2ccc(S(=O)(=O)O)c3cc(S(=O)(=O)O)cc(S(=O)(=O)O)c23)cc1NC(=O)c1cccc(NC(=O)Nc2cccc(C(=O)Nc3cc(C(=O)Nc4ccc(S(=O)(=O)O)c5cc(S(=O)(=O)O)cc(S(=O)(=O)O)c45)ccc3C)c2)c1`, the GI50 in experiment [2], in [3], in [4], in [5], in experiment [19] and in experiment [6] was > 50 µM (inactive) in each case. For the same compound, the GI50 in experiment [7], in experiment [8], in experiment [9], in experiment [11], in experiment [12] and in [13] was > 50 µM (inactive) throughout. The GI50 in [14] was > 50 µM (inactive); in experiment [15], > 50 µM (inactive); in experiment [16], > 50 µM (inactive); in experiment [17], > 50 µM (inactive); in experiment [18] it was 17.7 µM (inactive).

With `CCOC(=O)c1c(-c2ccc(OC)cc2)c(C#N)c(=S)n(C2OC(COC(C)=O)C(OC(C)=O)C(OC(C)=O)C2OC(C)=O)c1-c1ccccc1` (stereo unspecified), the GI50 in experiment [3], in experiment [4], in [5], in experiment [19], in experiment [6] and in experiment [7] was > 100 µM (inactive) throughout. The GI50 in [8], in [9], in experiment [10], in [11], in experiment [12] and in experiment [13] was > 100 µM (inactive) in each case. Moreover, the GI50 in [14], in experiment [15], in [16] and in experiment [17] was > 100 µM (inactive) in each case.

In the case of `O=C(NCc1cccc(C(F)(F)F)c1)c1cc2sccc2nc1C(F)(F)F`, the GI50 in [1], in experiment [2], in experiment [3], in experiment [4], in [5] and in experiment [6] was > 100 µM (inactive) in each case. Further, the GI50 in [8] is > 100 µM (inactive); in experiment [9] it was > 100 µM (inactive); in experiment [10] it was 33.8 µM (inactive); in [11] it was > 100 µM (inactive); in experiment [12], > 100 µM (inactive); in [13], > 100 µM (inactive). The GI50 in experiment [14] was 82.2 µM (inactive); in experiment [15], > 100 µM (inactive); in experiment [16], 27.4 µM (inactive); in experiment [17] it was > 100 µM (inactive); in experiment [18] it was 98.9 µM (inactive).

`Cc1c(CCN2CCOCC2)c(N2CCOCC2)n2c(nc3ccccc32)c1C#N`: the GI50 in [1], in [2], in experiment [3], in [5], in experiment [6] and in [7] was > 10 µM (inactive) each time. Further, the GI50 in [8], in [9], in [10], in experiment [11], in experiment [12] and in experiment [13] was > 10 µM (inactive) throughout. In addition, the GI50 in experiment [14], in experiment [15], in experiment [16], in [17] and in experiment [18] was > 10 µM (inactive) in each case.

As for `S=C1CCSc2c(ccc3ccccc23)N1`, the GI50 in [1] is 77.6 µM (inactive); in [2], > 100 µM (inactive); in experiment [3], 93.8 µM (inactive); in experiment [5] it was > 100 µM (inactive); in [6], 70.5 µM (inactive); in experiment [7] it was > 100 µM (inactive). Further, the GI50 is 35.6 µM (inactive) in [8]; 41.4 µM (inactive) in [10]; > 100 µM (inactive) in [11]; 67.1 µM (inactive) in experiment [12]; > 100 µM (inactive) in experiment [13]; 30 µM (inactive) in experiment [14]. In addition, the GI50 in experiment [15] is > 100 µM (inactive); in [16], > 100 µM (inactive); in experiment [17], 56 µM (inactive); in experiment [18], > 100 µM (inactive).

Take `FC(F)(F)c1cc(N(C2c3ccccc3C=Cc3ccccc32)P(Cl)Cl)cc(C(F)(F)F)c1`: the GI50 in experiment [1] was 17.1 µM (inactive); in experiment [2], 22.2 µM (inactive); in experiment [4], 18.7 µM (inactive); in experiment [5] it was 22 µM (inactive); in experiment [6] it was 17.9 µM (inactive); in experiment [7], 18.5 µM (inactive). The GI50 in experiment [8] was 16 µM (inactive); in experiment [9], 18 µM (inactive); in experiment [10], 17.6 µM (inactive); in experiment [11], 18 µM (inactive); in [12], 0.706 µM (active); in [13], 24 µM (inactive). Also, the GI50 in experiment [14] was 13.1 µM (inactive); in experiment [15] it was 20 µM (inactive); in experiment [16], 17.8 µM (inactive); in experiment [17], 15.2 µM (inactive); in [18], 19.1 µM (inactive).

Regarding `C=CCc1cc(C=C(C#N)C#N)cc(OC)c1O`, the GI50 was > 100 µM (inactive) in experiment [1]; 52.6 µM (inactive) in experiment [2]; 94.2 µM (inactive) in experiment [3]; > 100 µM (inactive) in experiment [4]; > 100 µM (inactive) in experiment [5]; > 10 µM (inactive) in experiment [19]. Besides, the GI50 in experiment [6] was 38.9 µM (inactive); in experiment [7], 50.2 µM (inactive); in [8], 42.7 µM (inactive); in experiment [9] it was 39.4 µM (inactive); in [11], 79.8 µM (inactive); in experiment [12], 90.4 µM (inactive). Further, the GI50 was 46.9 µM (inactive) in [13]; 40 µM (inactive) in experiment [14]; > 100 µM (inactive) in experiment [15]; 76.2 µM (inactive) in experiment [16]; 62.2 µM (inactive) in [17]; > 100 µM (inactive) in [18].
